Series [1] is described as follows: Toxicity in rat. The following applies: in vivo.
The subject of series [2] is Bacillus subtilis. The experiment in a line: Antibacterial activity against Bacillus subtilis ATCC 6633 assessed as bacterial growth inhibition by agar diffusion method. The format is functional.
Series [3] deals with T1, Phospho-N-acetylmuramoyl-pentapeptide-transferase (Escherichia coli, UniProt E2QF15).
T1 sequence (E2QF15 whole entry): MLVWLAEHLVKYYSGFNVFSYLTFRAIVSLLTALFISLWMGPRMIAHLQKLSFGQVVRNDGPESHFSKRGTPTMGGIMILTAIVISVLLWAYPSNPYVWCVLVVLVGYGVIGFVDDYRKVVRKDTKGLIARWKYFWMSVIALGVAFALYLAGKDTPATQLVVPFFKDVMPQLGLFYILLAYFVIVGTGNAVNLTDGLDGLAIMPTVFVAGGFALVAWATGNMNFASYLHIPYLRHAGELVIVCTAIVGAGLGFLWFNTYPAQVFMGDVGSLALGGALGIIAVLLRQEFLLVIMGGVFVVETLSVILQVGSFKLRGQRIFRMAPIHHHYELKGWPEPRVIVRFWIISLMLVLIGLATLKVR
The experiment in a line: Inhibition of MraY in Escherichia coli.

Series [4] is described as follows: Inhibition of Bacterial MraY. On the set-up: species or system Bacteria.

≈ marks a conversion by molar mass, not a printed value.

For orientation: LD50 means the dose expected to kill half of the subjects tested. Read a low LD50 as greater toxicity. Usually MIC stands for the lowest concentration that inhibits growth of the organism. As a reminder, the IC50 is the concentration that gives 50% inhibition. The low end stands for inhibition by little substance, the high end for a need for much substance.

In the case of `CCC(C)CCCCCCCCCC/C=C/C(=O)N[C@H]1[C@H](O[C@@H]2O[C@@H](CO)[C@H](O)[C@H](O)[C@H]2NC(C)=O)O[C@H](C[C@@H](C)[C@H]2O[C@@H](n3ccc(=O)[nH]c3=O)[C@H](O)[C@@H]2O)[C@H](O)[C@@H]1O` (some centres not stated), in series [1], the LD50 was 0.137 mg/kg. The MIC in series [2] is 0.1 µg/mL (≈ 0.117 µM).

For `CC(=O)N[C@H]1[C@H](O[C@@H]2O[C@H](C[C@@H](C)[C@H]3O[C@@H](n4ccc(=O)[nH]c4=O)[C@H](O)[C@@H]3O)[C@H](O)[C@H](O)[C@H]2NC(=O)CCCCCCCCCCCCCCC(C)C)O[C@@H](CO)[C@H](O)[C@@H]1O`, the LD50 in series [1] is 0.137 mg/kg. In series [2], the MIC is 0.1 µg/mL (≈ 0.115 µM).

Consider `CCCCCCCCCCc1cn(C[C@H](O[C@@H]2O[C@H](CN)[C@@H](O)[C@H]2O)[C@H]2O[C@@H](n3ccc(=O)[nH]c3=O)[C@H](O)[C@@H]2O)nn1`, for which the IC50 in series [3] was determined as 8 µM.

The molecule `CO[C@H]1[C@@H](O)[C@H](n2ccc(=O)[nH]c2=O)O[C@@H]1C(OC1OC(C(=O)Nc2ccc(C(O)C(O)C(=O)N/C=C/C(=O)NCC(=O)O)cc2)=CC(O)C1O)C(N)=O` (some centres not stated) registered an IC50 in series [4] of 0.011 µM.

Molecule `NC[C@H]1O[C@@H](O[C@@H](CO)[C@H]2O[C@@H](n3ccc(=O)[nH]c3=O)[C@H](O)[C@@H]2O)[C@H](O)[C@@H]1O` displayed an IC50 in series [4] of 5 µM.

With `CO[C@H]1[C@@H](O)[C@H](n2ccc(=O)[nH]c2=O)O[C@@H]1[C@@H](O[C@@H]1OC(C(=O)N[C@H]2CSC[C@@H](C)NC2=O)=C[C@@H](O)[C@H]1O)C(N)=O`, 0.058 µM corresponded to half-maximal inhibition in series [3] (IC50).

`CC(=O)N[C@H]1[C@H](O[C@@H]2O[C@H](C[C@@H](C)[C@H]3O[C@@H](n4ccc(=O)[nH]c4=O)[C@H](O)[C@@H]3O)[C@H](O)[C@H](O)[C@H]2NC(=O)CC(O)CCCCCCCCCCCCC(C)C)O[C@@H](CO)[C@H](O)[C@@H]1O` (some centres not stated) yielded an LD50 in series [1] of 0.137 mg/kg. Also, in series [2], the MIC was found to be 0.1 µg/mL (≈ 0.112 µM).

Regarding `CCC(C)CCCCCCCCCCCC/C=C/C(=O)N[C@H]1[C@H](O[C@@H]2O[C@@H](CO)[C@H](O)[C@H](O)[C@H]2NC(C)=O)O[C@H](C[C@@H](C)[C@H]2O[C@@H](n3ccc(=O)[nH]c3=O)[C@H](O)[C@@H]2O)[C@H](O)[C@@H]1O` (some centres not stated), the LD50 in series [1] amounted to 0.137 mg/kg. The MIC in series [2] was 0.1 µg/mL (≈ 0.113 µM).

Turning to `N=CNC[C@H]1O[C@@H](OC[C@H]2O[C@@H](n3ccc(=O)[nH]c3=O)[C@H](O)[C@@H]2O)[C@H](O)[C@@H]1O`, the IC50 in series [3] came out at 25 µM.

`CO[C@H]1[C@H](O[C@@H](C2C(=O)N(Cc3ccccc3)C(=O)N2CCCNC(=O)[C@@H](NC(=O)[C@@H](NC(=O)N[C@H](C(=O)O)C(C)C)[C@@H]2CCNC(=N)N2)[C@@H](O)C(C)C)[C@H]2O[C@@H](n3ccc(=O)[nH]c3=O)[C@H](O)[C@@H]2O)O[C@H](CN)[C@H]1O` (some centres not stated) showed an IC50 in series [4] of 6.25 µM.

`CO[C@H]1[C@@H](OC)[C@H](n2ccc(=O)[nH]c2=O)O[C@@H]1[C@@H](O[C@@H]1OC(C(=O)NCCSSCCNC(C)=O)=C[C@@H](O)[C@H]1O)C(N)=O` yielded an IC50 in series [3] of 0.01 µM.

In series [1], `CC(=O)N[C@H]1[C@H](O[C@@H]2O[C@H](C[C@@H](C)[C@H]3O[C@@H](n4ccc(=O)[nH]c4=O)[C@H](O)[C@@H]3O)[C@H](O)[C@H](O)[C@H]2NC(=O)CC(O)CCCCCCCCCCC(C)C)O[C@@H](CO)[C@H](O)[C@@H]1O` (some centres not stated) had an LD50 of 0.137 mg/kg. Moreover, the MIC in series [2] was 0.1 µg/mL (≈ 0.116 µM).

The molecule `CC(=O)N[C@H]1[C@H](O[C@@H]2O[C@H](C[C@@H](C)[C@H]3O[C@@H](n4ccc(=O)[nH]c4=O)[C@H](O)[C@@H]3O)[C@H](O)[C@H](O)[C@H]2NC(=O)/C=C/CCCCCCCCCCC(C)C)O[C@@H](CO)[C@H](O)[C@@H]1O` returned an LD50 in series [1] of 0.137 mg/kg. Besides, in series [2], the MIC was found to be 0.1 µg/mL (≈ 0.119 µM).

Turning to `CC(=O)N[C@H]1[C@H](O[C@@H]2O[C@H](C[C@@H](C)[C@H]3O[C@@H](n4ccc(=O)[nH]c4=O)[C@H](O)[C@@H]3O)[C@H](O)[C@H](O)[C@H]2NC(=O)/C=C/CCCCCCCCCCCC(C)C)O[C@@H](CO)[C@H](O)[C@@H]1O`, the LD50 in series [1] amounted to 0.137 mg/kg. In series [2], the minimum inhibitory concentration (MIC) was 0.1 µg/mL (≈ 0.117 µM).

Take `NC[C@H]1O[C@@H](O[C@@H](Cn2cc(CCCCCCCCCCc3ccccc3)nn2)[C@H]2O[C@@H](n3ccc(=O)[nH]c3=O)[C@H](O)[C@@H]2O)[C@H](O)[C@@H]1O`: 8 µM corresponded to half-maximal inhibition in series [3] (IC50).

As to `NC[C@H]1O[C@@H](O[C@@H](Cn2cc(Cc3ccc(COc4ccc(C(=O)c5ccccc5)cc4)cc3)nn2)[C@H]2O[C@@H](n3ccc(=O)[nH]c3=O)[C@H](O)[C@@H]2O)[C@H](O)[C@@H]1O`, it took 8 µM to reach half-maximal inhibition in series [3] (IC50).

On to `CSCC[C@H](NC(=O)N[C@@H](Cc1c[nH]c2ccccc12)C(=O)O)C(=O)N[C@@H](CN(C)C(=O)[C@@H](N)Cc1cccc(O)c1)C(=O)N/C=C1/C[C@@H](O)[C@H](n2ccc(=O)[nH]c2=O)O1`, for which the MIC in series [2] came out at 12.5 µg/mL (≈ 14.7 µM).

In series [3], `N=C(N)NC[C@H]1O[C@@H](OC[C@H]2O[C@@H](n3ccc(=O)[nH]c3=O)[C@H](O)[C@@H]2O)[C@H](O)[C@@H]1O` yielded an IC50 of 25 µM.

Take `CCC(C)CCCCCCCCCCCCC(=O)N[C@H]1[C@H](O[C@@H]2O[C@@H](CO)[C@H](O)[C@H](O)[C@H]2NC(C)=O)O[C@H](C[C@@H](C)[C@H]2O[C@@H](n3ccc(=O)[nH]c3=O)[C@H](O)[C@@H]2O)[C@H](O)[C@@H]1O` (some centres not stated): the LD50 in series [1] came to 0.137 mg/kg. Moreover, the MIC in series [2] turned out to be 0.1 µg/mL (≈ 0.116 µM).

Consider `CC(=O)N[C@H]1[C@H](O[C@@H]2O[C@H](C[C@@H](C)[C@H]3O[C@@H](n4ccc(=O)[nH]c4=O)[C@H](O)[C@@H]3O)[C@H](O)[C@H](O)[C@H]2NC(=O)/C=C/CCCCCCCCCCCCC(C)C)O[C@@H](CO)[C@H](O)[C@@H]1O`, for which the LD50 in series [1] was determined as 0.137 mg/kg. The MIC in series [2] was found to be 0.1 µg/mL (≈ 0.115 µM).

`NC[C@H]1O[C@@H](O[C@@H](Cc2cn(Cc3ccc(COc4ccc(C(=O)c5ccccc5)cc4)cc3)nn2)[C@H]2O[C@@H](n3ccc(=O)[nH]c3=O)[C@H](O)[C@@H]2O)[C@H](O)[C@@H]1O` yielded an IC50 in series [3] of 8 µM.

The molecule `CNC[C@H]1O[C@@H](OC[C@H]2O[C@@H](n3ccc(=O)[nH]c3=O)[C@H](O)[C@@H]2O)[C@H](O)[C@@H]1O` gave an IC50 in series [3] of 25 µM.

Turning to `CCCCCCCCCCCCN1C(=O)C([C@H](O[C@@H]2O[C@H](CN)[C@@H](O)[C@H]2OC)[C@H]2O[C@@H](n3ccc(=O)[nH]c3=O)[C@H](O)[C@@H]2O)N(CCCNC(=O)[C@@H](NC(=O)[C@@H](NC(=O)N[C@H](C(=O)O)C(C)C)[C@@H]2CCNC(=N)N2)[C@@H](O)C(C)C)C1=O` (some centres not stated), inhibition in series [4] was half-maximal at 6.25 µM (IC50).

In the case of `NC[C@H]1O[C@@H](O[C@@H](Cc2cn(CCCCCCCCCCOc3ccc(C(=O)c4ccccc4)cc3)nn2)[C@H]2O[C@@H](n3ccc(=O)[nH]c3=O)[C@H](O)[C@@H]2O)[C@H](O)[C@@H]1O`, the IC50 in series [3] turned out to be 8 µM.

In the case of `CCC(C)CCCCCCCCCCCCCCC(=O)N[C@H]1[C@H](O[C@@H]2O[C@@H](CO)[C@H](O)[C@H](O)[C@H]2NC(C)=O)O[C@H](C[C@@H](C)[C@H]2O[C@@H](n3ccc(=O)[nH]c3=O)[C@H](O)[C@@H]2O)[C@H](O)[C@@H]1O` (some centres not stated), the LD50 in series [1] is 0.137 mg/kg. In addition, the MIC in series [2] was found to be 0.1 µg/mL (≈ 0.113 µM).

For `CC(=O)N[C@H]1[C@H](O[C@@H]2O[C@H](C[C@@H](C)[C@H]3O[C@@H](n4ccc(=O)[nH]c4=O)[C@H](O)[C@@H]3O)[C@H](O)[C@H](O)[C@H]2NC(=O)CCCCCCCCCCCCC(C)C)O[C@@H](CO)[C@H](O)[C@@H]1O`, the LD50 in series [1] amounted to 0.137 mg/kg. Besides, in series [2], the MIC worked out at 0.1 µg/mL (≈ 0.118 µM).
